Test [1] deals with forebrain neuroepithelial tissues. Kind of test: Singular neural rosette emergence in micropatterned forebrain neuroepithelial tissues, with ROCK inhibition. As to conditions: for singular rosette emergence efficiency: presence of 10 μM ROCK inhibitor, 5 days. The class given is cell-based, human. The source says:
(§1) NEC biomechanical properties vary by regional phenotype and affect rosette emergence behavior: The inefficient induction of singular rosette emergence in spinal neuroepithelial tissues under micropatterning conditions that were highly efficient for forebrain NECs prompted a re-examination of the optimal circular micropattern size for each regional phenotype. Moreover, we investigated how altering the biomechanical properties of each regional neuroepithelial tissue, by partial inhibition of the Rho-associated protein kinase (ROCK), would affect which micropattern size induced optimal singular rosette emergence. D-1 hESCs and 72-hr caudalized NMPs were seeded at 100,000 and 250,000 cells/cm^2, respectively, onto 150 (0.018 mm^2), 180 (0.025 mm^2), 200 (0.031 mm^2), 250 (0.049 mm^2), and 400 μm (0.126 mm^2) diameter circular micropattern arrays to generate forebrain and spinal neuroepithelial tissues (FIGS. 6A-6B and 6D-6E). […] Similar to our previous results, the efficiency of singular neural rosette emergence for forebrain tissues peaked at 85% on 250 μm (0.049 mm^2) diameter circular micropatterns (FIG. 6C). However, in the presence vs. absence of ROCK inhibitor, the efficiency curve shifted leftward inducing singular rosette emergence in 75% vs. 0% of 150 μm (0.018 mm^2), 89% vs. 50% of 180 μm (0.025 mm^2), 87% vs. 58% of 200 μm (0.031 mm^2), and 11% vs. 85% of 250 μm (0.049 mm^2) diameter forebrain neuroepithelial tissues, respectively.
Generation of Micropatterned Forebrain Neural Tissues: WA09 or HUES3 Hb9::GFP hESCs were maintained in Essential 8 medium (E8) on MATRIGEL™-coated TCPS plates and routinely passaged with Versene (Thermo Fisher). NEC derivation from hPSCs was performed in accordance with the E6 protocol (23). To generate NEC-derived micropatterned tissues at various stages of neural derivation, cells were first rinsed with PBS, dissociated with Accutase (Thermo Fisher) for 5 minutes at 37° C., and collected via centrifugation at 1000 rpm for 5 minutes. Singularized NECs were re-suspended in E6 media with 10 μM ROCK inhibitor (Y27632; R&D Systems) and seeded onto micropatterned substrates at 75,000 cells/cm^2 in 2 mL of media per well. The following day the media was replaced with 2 mL of E6 media and 50% media changes were performed daily thereafter. Alternatively, to generate hPSC-derived micropatterned tissues, hPSC cultures at ˜85% confluency were rinsed with PBS, dissociated with Accutase for 5 minutes at 37° C. and collected via centrifugation at 1000 rpm for 5 minutes. Singularized hPSCs were then suspended in E8 media with 10 μM ROCK inhibitor and seeded onto micropatterned substrates at 100,000 cells/cm^2 in 2 mL of media per well. The following day the media was replaced with 2 mL of E6 media and 50% media changes were performed daily thereafter.
Immunocytochemistry and Microscopy: Micropatterned tissues were rinsed with PBS and fixed with 4% paraformaldehyde (PFA, Sigma Aldrich) in PBS for 10 minutes at room temperature. Following three rinses with phosphate buffered saline (PBS), the micropatterned substrates were blocked and permeabilized in PBS with 5% Donkey Serum and 0.3% Triton X-100 (TX100; Thermo Fisher) (PBS-DT) for 1 hour at room temperature. Next, the tissues were incubated with primary antibodies diluted in PBS-DT for 2 hours at room temperature or overnight at 4° C. Then, the substrates were rinsed in PBD-DT 3 times for 15 minutes each. Secondary antibodies were diluted in PBS-DT and exposed to the tissues for 1 hour at room temperature. Tissue nuclei were subsequently stained with 300 nM 4′,6-diamidino-2-phenylindoldihydrochloride (DAPI, Sigma Aldrich) for 30 minutes followed by three 15 minute PBS washes. The micropatterned substrates were mounted on glass coverslips using Prolong Gold Antifade Reagent (Thermo Fisher). […]

Test [2] has as its system spinal neuroepithelial tissues. Kind of test: Singular neural rosette emergence in micropatterned spinal neuroepithelial tissues, with ROCK inhibition. As to conditions: for effect on ability to form neural rosettes: 10 μM ROCK inhibitor, 5 days, spinal neuroepithelial tissues, dihydrochloride. The class given is cell-based, human.
Description: as §1
Generation of Micropatterned Spinal Cord Neuroepithelial Tissues: Caudalization of hPSC-derived cultures to generate micropatterned neuroepithelial tissues of the cervical/thoracic spinal cord was performed using a modified version of the deterministic HOX patterning protocol (36). Human PSCs were dissociated with Accutase and seeded onto MATRIGEL™-coated, 6-well TCPS plates at 150,000 cells/cm^2 in E8 media comprising 10 μM ROCK inhibitor. […]

Consider `C[C@@H](N)[C@H]1CC[C@H](C(=O)Nc2ccncc2)CC1.Cl.Cl` [ROCK inhibitor, (+)-(R)-trans-4-(1-aminoethyl)-N-(4-pyridyl)cyclohexanecarboxamide dihydrochloride], for which, in test [1] (10 μM Rock inhibitor, forebrain NECs), the “effect on rosette formation capacity” value is reported as “only partially diminish”. Also, the “NEC density in presence vs. absence of ROCK inhibitor” value is listed as “did not vary significantly” in test [1] (forebrain tissues of a given micropattern size, 10 μM) and “did not vary significantly” in test [2] (spinal tissues of a given micropattern size, 10 μM). The “singular rosette emergence efficiency” value amounted to 75% in test [1] (150 μm (0.018 mm^2) diameter circular micropatterns), 89% in test [1] (180 μm (0.025 mm^2) diameter circular micropatterns), 87% in test [1] (200 μm (0.031 mm^2) diameter circular micropatterns) and 11% in test [1] (250 μm (0.049 mm^2) diameter circular micropatterns). Also, the “effect on ability to form neural rosettes” value is given as “completely abolished their ability form neural rosettes” in test [2] and “fully eliminate” in test [2] (listed as Rock inhibitor).

These data come from US12529032B2, “Methods and culture substrates for controlled induction of biomimetic neural tissues comprising singular rosette structures” (priority 2017, dated 2026).
